Laboratory results as given in PubChem BioAssay AID1918949 (Molecular Pharmacology Branch, DTP, NCI, 2023).

System: K24384-001-R-PDC complex spheroid viability
Assay: Anticancer human tumor K24384-001-R-PDC patient-derived pancreatic adenocarcinoma cell line growth inhibition
Conditions: for IC50: curve of first compound; for viability, T/C: stronger effect = lower value
From the text: Multicellular complex tumor spheroid response to LSD1 Inhibitor Iadademstat in combination with a variety of drugs and investigational agents in selected tumor cell lines
The current study was undertaken to assess response to LSD1 inhibitors in combination with standard-of-care drugs and investigational agents in solid tumor complex spheroid models as well as in the K-562 leukemia. Complex spheroids include a stromal component modeled by human endothelial cells (HUVEC) and fibroblasts modeled by human mesenchymal stem cells (MSCs). The concentration ranges selected for each drug and investigational agent were based upon clinically achievable concentrations if the clinical Cmax of the agent was known.
Compounds. The drugs and investigational agents used in this study are listed on Table 1. All of the agents used, including staurosporine (NSC755774) and gemcitabine (NSC613327), were obtained from the Developmental Therapeutics Program, NCI. FDA-approved anticancer drugs are available from the NCI at http://dtp.nci.nih.gov/branches/dscb/oncology_drugset_explanation.html. Drugs and investigational agents were >95% pure by proton nuclear magnetic resonance (NMR) and liquid chromatography/mass spectrometry (LC/MS). Stock solutions were prepared at 400x in DMSO, stored at -70 degrees C, and diluted in fresh medium prior to their use. The final concentration of DMSO in cell culture wells never exceeded 0.25% (v/v). The FDA-approved anticancer drug set is available from the Developmental Therapeutics Program at https://dtp.cancer.gov/organization/dscb/obtaining/available_plates.htm. All drugs and investigational agents were tested over a range starting from a high concentration at or near the clinical Cmax and decreasing in half-log increments. If the clinical Cmax for an agent had not been determined, the highest concentration tested was 10 microM.
Cell Lines. The patient-derived cancer cell (PDC) lines: 292921-168-R-J2-PDC, K24384-001-R-PDC, and 521955-158-R2-J5-PDC pancreatic carcinomas, 556581-035-R-J1 ovarian carcinoma, 324938-238-R-J1-PDC, 855422-203-R-J1-PDC and 883617-216-R-J1-PDC urothelial bladder carcinomas, 743489-274-T-PDC renal cell carcinoma, 138582-R-J1 Merkel cell tumor, K60290-347-R-J1 and K57222-313-R-J1-PDC glioblastomas, 653999-131-R-J2-PDC, LG0703-F948-PDC, and 349418-098-R-PDC non-small cell lung carcinomas, 885512-296-R-J2-PDC, 171881-019-R-J1-PDC breast carcinomas and 186277-243-T-J2-PDC and 233499-124-R-J2-PDC colon carcinomas were obtained from the NCI Patient-Derived Models Repository (PDMR, https://pdmr.cancer.gov). The established cell lines NCI/ADR-RES (RRID:CVCL_14520 and OVCAR-5 (RRID:CVCL_1628) ovarian carcinomas, 786-O (RRID:CVCL_1051) and A498 (RRID:CVCL_A498) renal cell carcinoma, NCI-H211 (ATCC, cat. CRL-5824; RRID:CVCL_1529), NCI-H196 (ATCC, cat. CRL-5823, RRID:CVCL_1509), SW 1271 (ATCC, cat. CRL-2177, RRID:CVCL_1716) and NCI-H1876 (ATCC, cat. CRL-5902, RRID:CVCL_1503) small cell lung carcinomas, MDA-MB-231 (RRID:CVCL_0062) and MDA-MB-468 (RRID:CVCL_0419)breast carcinomas (10-12). Pooled donor human umbilical vein endothelial cells (HUVEC, Lonza, cat. CC-2519) and human mesenchymal stem cells (hMSC, Lonza, cat. PT-2501) were purchased from Lonza (Walkersville, MD).
Cell Culture. All cells were maintained in an incubator at 37 degrees C and 5% CO2 with 95% humidity. The PDC lines were cultured according to standard operating procedures established by the NCI PDMR (https://pdmr.cancer.gov). Briefly all PDCs were thawed and cultured in Matrigel-coated flasks prepared with a working solution of 1X Ham's F-12 nutrient mix, without supplementation (Invitrogen, Waltham, MA, cat. 11765054), 100 U/mL penicillin-streptomycin (Invitrogen, cat. 15140122), and 2.5% Matrigel (Corning Inc., Corning, NY, cat. 354248) for the first three passages. […]

[1] = second compound 0.1 µM, first compound 0.0316 µM
[2] = second compound 0.1 µM, first compound 0.1 µM
[3] = second compound 0.316 µM, first compound 0.0316 µM
[4] = second compound 0.316 µM, first compound 0.1 µM
[5] = second compound 1 µM, first compound 0.0316 µM
[6] = second compound 1 µM, first compound 0.1 µM
[7] = second compound 3.16 µM, first compound 0.0316 µM
[8] = second compound 3.16 µM, first compound 0.1 µM
[9] = second compound 10 µM, first compound 0.0316 µM
[10] = second compound 10 µM, first compound 0.1 µM
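Further: spheroids exposed to agents for seven days before luminescence viability reading.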
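Wherever viability, T/C is given: 100% = DMSO vehicle control viability.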

## Cn1ncnc1C1c2n[nH]c(=O)c3cc(F)cc(c23)NC1c1ccc(F)cc1 (stereo not given) + NC1CC1c1ccc(-c2cccc(O)c2)cc1
Second compound 0.1 µM
  IC50: > 0.1 µM
Second compound 0.316 µM
  IC50: > 0.1 µM
Second compound 1 µM
  IC50: > 0.1 µM
Second compound 3.16 µM
  IC50: > 0.1 µM
Second compound 10 µM
  IC50: > 0.1 µM
Second compound 0.1 µM, first compound 0.000316 µM
  viability, T/C: 92.8%
Second compound 0.1 µM, first compound 0.001 µM
  viability, T/C: 121%
Second compound 0.1 µM, first compound 0.00316 µM
  viability, T/C: 104%
Second compound 0.1 µM, first compound 0.01 µM
  viability, T/C: 88.4%
[1]
  viability, T/C: 77.6%
[2]
  viability, T/C: 77.8%
Second compound 0.316 µM, first compound 0.000316 µM
  viability, T/C: 101%
Second compound 0.316 µM, first compound 0.001 µM
  viability, T/C: 105%
Second compound 0.316 µM, first compound 0.00316 µM
  viability, T/C: 84.4%
Second compound 0.316 µM, first compound 0.01 µM
  viability, T/C: 85.8%
[3]
  viability, T/C: 93.8%
[4]
  viability, T/C: 73.3%
Second compound 1 µM, first compound 0.000316 µM
  viability, T/C: 108%
Second compound 1 µM, first compound 0.001 µM
  viability, T/C: 96.7%
Second compound 1 µM, first compound 0.00316 µM
  viability, T/C: 84.5%
Second compound 1 µM, first compound 0.01 µM
  viability, T/C: 94.2%
[5]
  viability, T/C: 78.3%
[6]
  viability, T/C: 102%
Second compound 3.16 µM, first compound 0.000316 µM
  viability, T/C: 91.7%
Second compound 3.16 µM, first compound 0.001 µM
  viability, T/C: 96.9%
Second compound 3.16 µM, first compound 0.00316 µM
  viability, T/C: 93.6%
Second compound 3.16 µM, first compound 0.01 µM
  viability, T/C: 101%
[7]
  viability, T/C: 102%
[8]
  viability, T/C: 75.8%
Second compound 10 µM, first compound 0.000316 µM
  viability, T/C: 108%
Second compound 10 µM, first compound 0.001 µM
  viability, T/C: 111%
Second compound 10 µM, first compound 0.00316 µM
  viability, T/C: 126%
Second compound 10 µM, first compound 0.01 µM
  viability, T/C: 94.9%
[9]
  viability, T/C: 96%
[10]
  viability, T/C: 86.5%

## Nc1ncn(C2CC(O)C(CO)S2)c(=O)n1 (stereo not given) + NC1CC1c1ccc(-c2cccc(O)c2)cc1
Second compound 0.1 µM
  IC50: > 0.3 µM
Second compound 0.316 µM
  IC50: > 0.3 µM
Second compound 1 µM
  IC50: > 0.3 µM
Second compound 3.16 µM
  IC50: > 0.3 µM
Second compound 10 µM
  IC50: > 0.3 µM
Second compound 0.1 µM, first compound 0.000949 µM
  viability, T/C: 102%
Second compound 0.1 µM, first compound 0.003 µM
  viability, T/C: 133%
Second compound 0.1 µM, first compound 0.00949 µM
  viability, T/C: 101%
Second compound 0.1 µM, first compound 0.03 µM
  viability, T/C: 89.8%
Second compound 0.1 µM, first compound 0.0949 µM
  viability, T/C: 67.3%
Second compound 0.1 µM, first compound 0.3 µM
  viability, T/C: 54.9%
Second compound 0.316 µM, first compound 0.000949 µM
  viability, T/C: 102%
Second compound 0.316 µM, first compound 0.003 µM
  viability, T/C: 97.1%
Second compound 0.316 µM, first compound 0.00949 µM
  viability, T/C: 103%
Second compound 0.316 µM, first compound 0.03 µM
  viability, T/C: 87.1%
Second compound 0.316 µM, first compound 0.0949 µM
  viability, T/C: 72.2%
Second compound 0.316 µM, first compound 0.3 µM
  viability, T/C: 52.1%
Second compound 1 µM, first compound 0.000949 µM
  viability, T/C: 124%
Second compound 1 µM, first compound 0.003 µM
  viability, T/C: 110%
Second compound 1 µM, first compound 0.00949 µM
  viability, T/C: 99.2%
Second compound 1 µM, first compound 0.03 µM
  viability, T/C: 87.8%
Second compound 1 µM, first compound 0.0949 µM
  viability, T/C: 73.1%
Second compound 1 µM, first compound 0.3 µM
  viability, T/C: 50.6%
Second compound 3.16 µM, first compound 0.000949 µM
  viability, T/C: 108%
Second compound 3.16 µM, first compound 0.003 µM
  viability, T/C: 113%
Second compound 3.16 µM, first compound 0.00949 µM
  viability, T/C: 108%
Second compound 3.16 µM, first compound 0.03 µM
  viability, T/C: 108%
Second compound 3.16 µM, first compound 0.0949 µM
  viability, T/C: 92.6%
Second compound 3.16 µM, first compound 0.3 µM
  viability, T/C: 56.2%
Second compound 10 µM, first compound 0.000949 µM
  viability, T/C: 136%
Second compound 10 µM, first compound 0.003 µM
  viability, T/C: 131%
Second compound 10 µM, first compound 0.00949 µM
  viability, T/C: 120%
Second compound 10 µM, first compound 0.03 µM
  viability, T/C: 108%
Second compound 10 µM, first compound 0.0949 µM
  viability, T/C: 95.3%
Second compound 10 µM, first compound 0.3 µM
  viability, T/C: 57.2%

## CC1(C)CCC(CN2CCN(c3ccc(C(=O)NS(=O)(=O)c4ccc(NCC5CCOCC5)c([N+](=O)[O-])c4)c(Oc4cnc5[nH]ccc5c4)c3)CC2)=C(c2ccc(Cl)cc2)C1 + NC1CCC(NC2CC2c2ccccc2)CC1
Second compound 0.1 µM
  IC50: 3.08 µM
Second compound 0.316 µM
  IC50: 2.74 µM
Second compound 1 µM
  IC50: 2.28 µM
Second compound 3.16 µM
  IC50: 3.11 µM
Second compound 10 µM
  IC50: 3.73 µM
[1]
  viability, T/C: 80.2%
[2]
  viability, T/C: 95.5%
Second compound 0.1 µM, first compound 0.316 µM
  viability, T/C: 85%
Second compound 0.1 µM, first compound 1 µM
  viability, T/C: 89.8%
Second compound 0.1 µM, first compound 3.16 µM
  viability, T/C: 49.1%
Second compound 0.1 µM, first compound 10 µM
  viability, T/C: 0.77%
[3]
  viability, T/C: 79.5%
[4]
  viability, T/C: 90.2%
Second compound 0.316 µM, first compound 0.316 µM
  viability, T/C: 88.9%
Second compound 0.316 µM, first compound 1 µM
  viability, T/C: 94.5%
Second compound 0.316 µM, first compound 3.16 µM
  viability, T/C: 44.6%
Second compound 0.316 µM, first compound 10 µM
  viability, T/C: 0.44%
[5]
  viability, T/C: 84%
[6]
  viability, T/C: 86%
Second compound 1 µM, first compound 0.316 µM
  viability, T/C: 81.6%
Second compound 1 µM, first compound 1 µM
  viability, T/C: 81.6%
Second compound 1 µM, first compound 3.16 µM
  viability, T/C: 37.6%
Second compound 1 µM, first compound 10 µM
  viability, T/C: 0.69%
[7]
  viability, T/C: 87.3%
[8]
  viability, T/C: 72.9%
Second compound 3.16 µM, first compound 0.316 µM
  viability, T/C: 77.3%
Second compound 3.16 µM, first compound 1 µM
  viability, T/C: 92.2%
Second compound 3.16 µM, first compound 3.16 µM
  viability, T/C: 49.6%
Second compound 3.16 µM, first compound 10 µM
  viability, T/C: 0.87%
[9]
  viability, T/C: 73.9%
[10]
  viability, T/C: 92.9%
Second compound 10 µM, first compound 0.316 µM
  viability, T/C: 77.8%
Second compound 10 µM, first compound 1 µM
  viability, T/C: 76.9%
Second compound 10 µM, first compound 3.16 µM
  viability, T/C: 58.4%
Second compound 10 µM, first compound 10 µM
  viability, T/C: 0.69%
